Source: patent publication EP4509511A1, “SUBSTITUTED SPIRO-ISOXAZOLINYL LACTAMS, SALTS THEREOF AND THEIR USE AS HERBICIDALLY ACTIVE SUBSTANCES” (Bayer Aktiengesellschaft, priority 2023, dated 2025)

Columns and labels:
SETVI = assay: Herbicidal post-emergence action - Part I; type: in vivo, Setaria viridis; details: one-leaf stage, rated visually after about 3 weeks vs untreated controls
Method: Seeds of mono- and dicotyledonous weed plants were placed in plastic pots in sandy loam soil (doubly sown with in each case one species of mono- or dicotyledonous weed plants per pot), covered with soil and cultivated in a greenhouse under controlled growth conditions. 2 to 3 weeks after sowing, the test plants were treated at the one-leaf stage. The compounds of the invention, formulated in the form of wettable powders (WP) or as emulsion concentrates (EC), were applied onto the green parts of the plants as aqueous suspension or emulsion with addition of 0.5% additive at a water application rate of 600 liters per hectare (converted). After the test plants had been kept in the greenhouse under optimum growth conditions for about 3 weeks, the activity of the preparations was rated visually in comparison to untreated controls. For example, 100% activity = the plants have died, 0% activity = like control plants. Tables B1 to B12, below, show the effects of selected compounds of the general formula (I) according to table 1 on various harmful plants and an application rate corresponding to 1280 g/ha or below obtained by the experimental procedure mentioned above. Table B1a: post-emergence activity at 1280g/ha against ABUTH in %

ABUTH = assay: Herbicidal pre-emergence action - Part II; type: in vivo, Abutilon theophrasti; details: visual grading after ca. 3 weeks vs untreated controls
Text: Seeds of mono- and dicotyledonous weed plants and crop plants were sown, in plastic or organic planting pots, in sandy loam and covered with soil. The compounds according to the invention, formulated in the form of wettable powders (WP) or as emulsifiable concentrates (EC), were applied to the surface of the covering soil as aqueous suspension or emulsion, with the addition of 0.5% of an additive, at an application rate of 600 1 of water/ha (converted). Following treatment, the pots were placed in a greenhouse and kept under optimum growth conditions for the test plants. The visual grading of the damage to the test plants was carried out after ca. 3 weeks in comparison to untreated controls (herbicidal effect in percent (%): 100% effect = plants have died off, 0% effect = as control plants). Tables C1 to C12 below show the effects of selected compounds of the general formula (I) according to table 1 on various harmful plants and an application rate corresponding to 320 g/ha or below obtained by the experimental procedure mentioned above. Table C1: pre-emergence activity at 320g/ha against ABUTH in %

Cc1ccsc1C1=NOC2(CCCN(Cc3c(F)cccc3F)C2=O)C1 (racemic) [Compound I-2]
post-emergence activity at 80g/ha against SETVI in % (SETVI; 80 g/ha): 90% | post-emergence activity at 320g/ha against SETVI in % (SETVI; 320 g/ha): 90% | post-emergence activity at 1280g/ha against SETVI in % (SETVI; 1280 g/ha): 90% | pre-emergence activity at 320g/ha against ABUTH in % (ABUTH): 80%
